The target of data set [1] is T1, bovine serum albumin (BSA) (Bos taurus, UniProt P02769). Description: Fluorescence quenching of BSA by CYA (Stern-Volmer and binding constants). Particulars: for Kd: read-out: KA (binding constant) (converted). The protocol:
The concentration of CYA was varied at 0, 0.33, 0.66, 1.0, 1.33, 1.66, and 2.0 × 10^−6 M.
Steady-state fluorescence spectra were performed on a FP-6500 spectrofluorimeter (Jasco, Japan) equipped with a thermostatic bath and 1.0 cm quartz cell. Fluorescence emission spectra were recorded at 300, 305, and 310 K in the range of 295 nm–500 nm. The excitation and emission slits with a band pass of 5 nm were used for all the measurements.
Synchronous fluorescence spectra were performed when the D-values between the excitation and emission wavelengths were set at 15 and 60 nm. Fluorescence excitation spectra were recorded at 302, 307, and 312 K in the range of 200–400 nm.
The Stern–Volmer equation below was used to analyze the fluorescence quenching data and confirm the quenching mechanism ([Zhou et al., 2022]): F0/F=1+KSVQ=1+kqτ0Q , where F 0 and F are the fluorescence intensities before and after the addition of the quencher CYA, K sv is the Stern–Volmer quenching constant, k q is the bimolecular quenching constant, τ 0 is the lifetime of the fluorophore in the absence of the quencher (10^−8 s), and [Q] is the concentration of the quencher. The Stern–Volmer quenching constant K sv is inversely correlated with temperature, and the k q values are much greater than the maximum scattering collisional quenching constant (2.0 × 10^10 M^−1S^−1).
For static quenching, the equilibrium between the free and bound molecules is given by the following equation: logF0−F/F=logKA+nlogQ , where K A is the binding constant, and n is the number of binding sites. […] Moreover, the values of n were approximately equal to 1, which indicated the presence of one binding site in the BSA–CYA system.

The target in data set [2] is T1, bovine serum albumin (BSA). The data set is described as follows: Circular dichroism spectra of the BSA-CYA system. In kind it is binding. Particulars: 1.0 × 10^−6 M BSA with 1.0 × 10^−6 M CYA, pH 7.4, 312 K. The protocol: For CD studies, the final concentration of BSA and CYA was 1.0 × 10^−6 M. The CD spectra were recorded at 312 K with a Jasco-810 spectropolarimeter (Jasco, Japan) using a 0.1 cm quartz cuvette. Three scans were accumulated at a scan speed of 200 nm min^−1, with data being collected every 0.2 nm from 200 nm to 260 nm at 312 K.

The subject of a further data set is liver. The data set is described as follows: Hepatotoxicity by liver transcriptomics. The data set is classed as in vivo, KM mice. The following applies: mice, CYA 1,000 mg/kg bw, 7 days. The protocol: For the hepatotoxicity study, a group of four mice (2 male and 2 female, KM) were administered CYA at a dose of 1,000 mg/kg bw. Another group of four mice received saline as a control. After 7 days, the mice were anaesthetised, sacrificed and their livers collected. A total of eight samples from 2 groups of the obtained livers were sent to Majorbio Technology Co., Ltd. (Shanghai, China) for testing, divided into the blank group (control; A1, A2, A3, A4) and the drug group administered CYA (drug; B1, B2, B3, B4), with 4 samples in each group. Sequencing was performed using the Meiji Medical Reference Transcriptome Sequencing Platform to complete the transcriptome analysis of eight samples. The raw reads were deposited into the NCBI Sequence Read Archive (SRA) database (BioProject: Number: PRJNA1082257).
Differently expressed genes are genes with significant differences obtained by computing the expression of all genes between different groups after transcriptome sequencing. On the Meggie Bio platform, differential gene analysis was carried out between groups by quantifying the expression results to obtain the genes that were differentially expressed between the two groups, and the differential analysis software was: DESeq2, the screening threshold was: |log2FC| ≥0 and padjust< 0.05, and the specific results are shown in Figure 5B below.

A further data set deals with testis. Also noted: method as in Ihsan et al., 2011. The following applies: ref Ihsan et al., 2011, cited from earlier work.

Where two headings read alike, the source gives them in different places.

T1 sequence (P02769 25-607): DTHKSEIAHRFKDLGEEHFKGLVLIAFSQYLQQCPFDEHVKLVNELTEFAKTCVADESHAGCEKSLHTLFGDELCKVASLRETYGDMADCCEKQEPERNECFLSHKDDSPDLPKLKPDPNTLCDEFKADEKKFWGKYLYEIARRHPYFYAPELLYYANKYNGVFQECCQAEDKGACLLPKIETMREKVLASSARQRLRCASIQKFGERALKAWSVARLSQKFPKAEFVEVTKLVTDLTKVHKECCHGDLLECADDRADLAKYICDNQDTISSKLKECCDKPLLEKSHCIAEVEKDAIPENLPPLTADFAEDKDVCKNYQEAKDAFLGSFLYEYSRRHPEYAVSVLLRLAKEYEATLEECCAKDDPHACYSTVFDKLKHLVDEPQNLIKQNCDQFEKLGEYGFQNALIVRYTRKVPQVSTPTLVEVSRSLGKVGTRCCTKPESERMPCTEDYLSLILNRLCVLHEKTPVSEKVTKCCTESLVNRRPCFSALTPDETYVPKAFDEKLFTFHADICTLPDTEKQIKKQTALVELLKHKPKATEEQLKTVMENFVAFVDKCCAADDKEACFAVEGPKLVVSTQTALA

For `N#CCC(=O)NN=Cc1c[n+]([O-])c2ccccc2[n+]1[O-]` [CYA, (2-formylquinoxaline)-N1,N4-dioxide cyanoacetylhydrazone], in data set [1] (T 302 K, pH 7.4), the “Ksv (Stern-Volmer quenching constant)” value came out at 86500 M⁻¹, the “kq (bimolecular quenching constant)” value is 8.65 × 10^12 M^−1S^−1, the “n (number of binding sites)” value came to 1.139 and the Kd was 5.71 µM. For the same compound, in data set [1] (T 307 K, pH 7.4), the “Ksv (Stern-Volmer quenching constant)” value was determined as 40700 M⁻¹, the “kq (bimolecular quenching constant)” value is 4.07 × 10^12 M^−1S^−1, the “n (number of binding sites)” value is listed as 0.915 and the Kd was 103 µM. Further, in data set [1] (T 312 K, pH 7.4), the “Ksv (Stern-Volmer quenching constant)” value is 33600 M⁻¹, the “kq (bimolecular quenching constant)” value was 3.36 × 10^12 M^−1S^−1, the “n (number of binding sites)” value came out at 0.931 and the Kd was 178 µM. In addition, the “n (number of binding sites)” value in data set [1] (all temperatures) is around 1. Further, the “BSA secondary structure, turns” value in data set [2] (BSA alone 19%) is on record as 26%. Besides, the “BSA secondary structure, α-helix” value in data set [2] (BSA alone 20%) is 21%. Further, the “BSA secondary structure, unordered” value in data set [2] (BSA alone 26%) came to 25%. Moreover, in data set [2] (BSA alone 35%), the “BSA secondary structure, β-strand” value was 28%. Besides, in the data set with liver, the “cell-process differential genes associated with apoptosis” value is “none”; the “direction of change of lipid metabolism / steroid biosynthesis related genes” value is recorded as “predominantly downregulated”; the “expression of StAR, P450scc, and 17β-HSD (liver transcriptomic data)” value is on record as “no significant decrease”; the “genes expressed uniquely after administration of the drug” value is listed as 249. Moreover, in the data set on liver, the “genes of lipid metabolism-related pathways with significant changes” value came out at 25, the “hepatotoxicity (transcriptomic assessment)” value is on record as “low hepatotoxicity” and the “significantly different genes associated with cell processes” value was 23. For the same compound, the “genes significantly downregulated in liver, drug group vs blank group” value in the data set with liver (DESeq2, padjust< 0.05) is given as 176.

With `CC(=O)c1c(C)[n+]([O-])c2ccccc2[n+]1[O-]` [MEQ, Mequindox], the “mRNA expression levels of AR and 3β-HSD” value with testis (110 mg/kg vs control group) is reported as “significantly increased”. The “mRNA expression levels of StAR, P450scc, and 17β-HSD in the testis” value in the data set with testis (275 mg/kg vs control group) is recorded as “significantly reduced”.

The values are drawn from paper PMC11456426, “Study of transport, tissue distribution, depletion, and hepatotoxicity of Cyadox, a quinoxaline-1,4-dioxide derivative” (Frontiers in Pharmacology, 2024).
